In patent US9096643B2, “Cell-protective peptides and uses thereof” (priority 2010, dated 2015):
No end group written: not given here.

Tests used:
[1] = system: neonatal rat CMs (heart cells); test: Heart cell attachment on peptide-modified Az-chitosan coated coverslips (brightfield cell counts); type: cell-based, rat (Sprague-Dawley); details: coated glass coverslips, 1, 3 and 5 days of incubation, FIG. 1
Description: Neonatal (1 to 2 day-old) Sprague-Dawley rats were euthanized according to the procedure approved by the University of Toronto Committee on Animal Care. […] The supernatant from 5 collagenase digests of the tissues was collected and centrifuged at 750 rpm (94 g) for 4 min, resuspended in culture medium and pre-plated into T75 flasks (Falcon) for 1 hour to separate the non-adherent cells (enriched CMs) from the adherent cells (non-myocytes). The enriched CMs were used in the studies. The CM culture medium consisted of Dulbecco's Modified Eagle Medium (DMEM) with 4.5 g/L glucose, 4 mM L-glutamine, 10% certified fetal bovine serum (FBS), 100 U/mL penicillin, 100 μg/mL streptomycin, and 10 mM 4-2-hydroxyethyl-1-piperazineethanesulfonic acid buffer (HEPES, Gibco/Invitrogen).
The surfaces used for microscopy analysis were created on circular 12 mm diameter glass coverslips (VWR). These were plasma treated (WS-400BZ-6NPP/Lite, Laurell Technologies) for 30 s. […]
The day before cells were ready to be seeded, the surfaces in the 12-well plates were sterilized by germicidal UV illumination overnight. […]
Brightfield images were taken with 10× magnification of surfaces with cells (N=3) to visualize the morphology and cell attachment (IX81, Olympus). […] The number of cells was then counted using the cell counting plug-in on ImageJ (NIH version 1.36b).

[2] = system: neonatal rat CMs (heart cells); test: Live/dead (CFDA/PI) staining of heart cells on coated surfaces; type: cell-based, rat (Sprague-Dawley); details: one and three days of incubation, FIG. 2
Description: The day before cells were ready to be seeded, the surfaces in the 12-well plates were sterilized by germicidal UV illumination overnight. The PBS surrounding the surfaces was then aspirated off and 100,000 live cells were pipetted onto each surface in 100 μL of culture media. These surfaces were left in the incubator for 20 to 30 min to allow the cells to begin to adhere, and then supplemented with 1 mL of warm CM media. The cells were cultivated for 8 days, with 100% culture media change every 2-3 days. The initial seeding density of heart cells on peptide-chitosan coated surfaces was 88 cells/mm^2. […] Each type of surface was created in triplicate.
Live dead staining was performed using 5-carboxyfluorescein diacetate acetoxymethly ester (CFDA, Invitrogen), which stains live cells green, and with propidium iodide (PI, Invitrogen), which stains dead cells red, according to the manufacturer's instruction. The samples were incubated in 10 μM of CFDA and 75 μL/mL of PI in PBS for 45 min at 37° C. Three different surfaces were analyzed for each type of sample (N=3) and a total of five images were taken for each surface to get a full representation of the viability of the cells on a surface. In order to quantify the viability, the numbers of live and dead cells were counted separately using the cell counter plug-in on ImageJ.

[3] = system: neonatal rat CMs (heart cells); test: Apo-ONE caspase 3/7 assay after serum starvation and taxol on coated surfaces; type: cell-based, rat (Sprague-Dawley); details: serum-starved, overnight taxol, vs control surfaces, FIG. 4
Description: Glass coverslips were coated with Az-chitosan, or Az-chitosan conjugated with QHREDGS, RGDS, or a scrambled peptide (DGQESHR). The cells were then seeded (100,000 cells in 50 μL of CM media; seeding density of 88 cells/mm^2) on each surface (N=3), including plain glass as a control, for 15 min. The cells were then supplemented with serum-free media. After 19 hours, 5 μL of taxol (paclitaxel, Sigma), dissolved at 100 μM in DMSO, was added and maintained for 17 hours and 45 min at which time caspase assay was performed. One set of glass surfaces was not exposed to taxol treatment as a negative control.
The Apo-ONE caspase assay (Promega) was performed according to manufacturer's protocol. The cells were permeabilized and lyzed to release the caspases, which are activated in cells undergoing apoptosis. The assay contains rhodamine 110, bis-(N-CBZ-L-aspartyl-L-glutamyl-L-valyl-L-aspartic acid amide; Z-DEVD-R110). Caspase 3 and 7 are known to cleave the peptide DEVD and the leaving group, rhodamine 110 becomes fluorescent when excited with fluorescent light. The amount of fluorescence is proportional to the level of caspase 3/7 activity in the sample. According to the manufacturer's protocol, the caspase substrate was dissolved in a buffer at 1:100. […] The fluorescence of the buffer was read in the fluorometer at an excitation of 485 nm and a cut off of 520 nm. […]

Lewis rats = details: rat, in vivo, sc
Description: Cardiac constructs were made by encapsulation of neonatal Lewis rat cardiomyocytes in Az-chitosan-QHREDGS or Az-chitosan-RGDS. A total of 2×10^6 cardiomyocytes were resuspended in 15 μL of ice cold cardiomyocytes medium with 30% FBS for at least 10 min. These cells were then encapsulated in 100 μL of the hydrogel in transwell plates and constructs (2 mm thick and 6 mm in diameter) were produced. A total of 8 samples were made for each type of hydrogel, and 4 from each group were implanted, while the other 4 were retained as in vitro controls. Samples were cultured at 37° C. for 5 d before they were implanted in vivo.
Cardiac constructs described above were inserted subcutaneously into the abdomen of Lewis rats. Four samples were implanted for each type of hydrogel. […] Quantification of total SMA and Factor VIII was performed using ImageScope v10 (Aperio Technologies) and mean intensities were averaged for six fields for each sample and normalized to total area. […] Apoptosis was assessed using a TUNEL assay (Roche Applied Science) following the manufacturer's standard protocol.

human iPS cells 0901B = test: iPS cell apoptosis, Apo-ONE Caspase 3/7; type: cell-based; details: 50 μM, five passages, vs PBS and scrambled peptide, FIG. 12B
Description: (§1) Human iPS cells were treated for 5 passages and levels of apoptosis were measured 3 days after passaging using the Apo-ONE Homogeneous Caspase assay (Promega) according to manufacturers instructions. The levels of Caspase 3/7 activation were proportional to levels of fluorescence. All statistical analyses were performed using the two-tailed student t-test assuming unequal variance. p<0.05 denote statistical significance.
(§2) IPS cells, BJ1D or 0901B, were treated with 5 μM or 50 μM of QHREDGS peptide, or 50 μM DGQESHR scrambled peptide in PBS with a PBS treated control for five passages and assayed for apoptosis using the APO One Caspase 3/7 system. The levels of Caspase 3/7 activation are proportional to fluorescence. […] Solid bars represent a statistical significance, p<0.05.

human iPS cells BJ1D = test: iPS cell apoptosis, Apo-ONE Caspase 3/7; type: cell-based; details: 50 μM, five passages, vs PBS and scrambled peptide, FIG. 12A
Description: as §1, §2

Which “cell adhesion / cell attachment to coated surface” value [1] does the source give for “Az-chitosan-QHREDGS: QHREDGS peptide covalently conjugated to Az-chitosan by EDC chemistry (also: covalently conjugated to Az-chitosan by EDC chemistry, site not given here)” here?
The value was “significantly greater cell adhesion”.

What about the “cell viability (live/dead)” value [2] of the same substance?
Its value is “significantly greater cell viability”.

And the caspase-3/7 activation [3]?
The caspase-3/7 activation was “significantly lower levels of caspase-3/7 activation”.

And the “animal health / external signs of inflammation” value (Lewis rats)?
Its value is “no external signs of inflammation”.

QHREDGS (angiopoietin 1 peptide) was tested. Which “Caspase 3/7 activity” value (human iPS cells 0901B) did it give?
Its value is “significant reduction of Caspase 3/7 activity”.

And the “Caspase 3/7 activity” value (human iPS cells BJ1D)?
Its value is “significant reduction of Caspase 3/7 activity”.
